Data taken from patent US7384934B2, “Piperazine substituted aryl benzodiazepines” (Eli Lilly and Company, priority 2002, dated 2008).
Structures can show the parent of a compound that is named as a salt.

Columns and labels:
[1] = biological target: T1, Dopamine D2 receptor (Homo sapiens, UniProt P14416); assay: Dopamine D2 receptor binding assay ([125I]iodospiperone); settings: relative Ki scale of Table 5; read-out: Relative D2 Receptor Binding Affinity Ki
T1 construct: purchased Receptor Biology (now owned by NEN) RBHD2CM
T1 sequence (P14416 1-414 isoform P14416-2): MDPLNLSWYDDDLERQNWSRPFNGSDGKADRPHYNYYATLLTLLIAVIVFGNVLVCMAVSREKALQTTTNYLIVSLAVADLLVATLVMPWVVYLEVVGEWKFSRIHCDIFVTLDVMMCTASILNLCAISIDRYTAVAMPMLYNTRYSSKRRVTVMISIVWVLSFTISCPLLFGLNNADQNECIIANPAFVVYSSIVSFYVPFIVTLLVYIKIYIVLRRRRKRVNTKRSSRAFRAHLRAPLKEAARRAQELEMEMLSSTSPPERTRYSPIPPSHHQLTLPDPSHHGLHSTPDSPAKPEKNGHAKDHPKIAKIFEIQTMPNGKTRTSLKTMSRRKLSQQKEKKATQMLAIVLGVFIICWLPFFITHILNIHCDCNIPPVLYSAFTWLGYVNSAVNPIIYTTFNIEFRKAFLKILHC
Method: The assay buffers used are 50 mM Tris-HCl pH 7.4, 120 mM NaCl, 5 mM KCl, 5 mM MgCl2, 1 mM EDTA for the Dopamine D2s receptor binding assay. […] The membranes used are from Receptor Biology (now owned by NEN), Cat # RBHD2CM for the D2 receptor.
Compounds are obtained as 10 mM stocks in 100% DMSO. They are diluted to 1 mM in 100% DMSO by adding 180 μL DMSO to 20 μL of stock in 96 well plates using a multidrop. […] This is done using a TECAN robot.
The radioligand is diluted in assay buffer to provide 0.1 nM for the D2 assay. Each vial of membranes is diluted up to 92 mL in assay buffer. The final assay volume is 250 μL consisting of 210 μl of diluted membranes, 20 μL of compound or 10% DMSO for total binding, and 20 μL of diluted radioligand. The compounds are transferred from drug dilution plates into coming 96 well assay plates using a 96 well Multimek pipettor. Radioligand and membranes are added to assay plates using multidrop pipettors. Non-specific binding is determined in wells containing a final concentration of 5 μM haloperidol. The final drug concentration range in half logs is from 10 μM down to 0.1 nM.
After addition of drug, membrane, and ligand, the plates are incubated for 2 hours at room temperature. During this time 96 well Millipore filter plates (MAFBNOB50) are soaked for a least 30 minutes with 200 μL per well of 0.5% polyethyleneimine.
The 0.5% PEI is removed from filterplate wells using a TiterTek MAP aspirator and 200 μL of the incubation mixture is transferred from the incubation plate to the filterplate after mixing. This transfer is done using the 96 tip Mutimek pipettor. After transfer to the filterplate filterplates are extracted and ished twice with 220 μL per well of cold buffer on the MAP aspirator. The peel away bottoms are removed from the filterplates and 60 μL per well of microscint 20 scintillation fluid is added per well using a multidrop. […]

| melting point | Ki [1] [µM] | SMILES |
| --- | --- | --- |
| 230 °C | – | Cc1cc2c(s1)Nc1cc(F)ccc1N=C2N1CCN(C)[C@@H](CCO)C1.Cl.Cl |
| 194 °C | – | CSCC[C@H]1CN(C2=Nc3ccc(F)cc3Nc3sc(C)cc32)CCN1C.Cl.Cl |
| 210 °C | – | COCC[C@H]1CN(C2=Nc3ccccc3Nc3ccc(C(C)C)cc32)CCN1C (as salt: hydrochloride) |
| 190 to 192 °C | – | COCC[C@H]1CN(C2=Nc3ccc(F)cc3Nc3sc(C)cc32)CCN1C (as salt: hydrochloride) [Example 279a, (S)-6-Fluoro 10-[3-(2-methoxy-ethyl)-4-methyl-piperazin-1-yl]-2-methyl-4H-3-thia-4,9-diaza-benzo[f]azulene dihydrochloride] |
| 200 to 202 °C | – | COCC[C@H]1CN(C2=Nc3cc(Cl)ccc3Nc3sc(C)cc32)CCN1C (as salt: hydrochloride) [Example 292, (S)-7-Chloro-10-[3-(2-methoxy-ethyl)-4-methyl-piperazin-1-yl]-2-methyl-4H-3-thia-4,9-diaza-benzo[f]azulene dihydrochloride] |
| 48 to 56 °C | – | COCC[C@H]1CN(C2=Nc3ccccc3Nc3ccc(C(F)(F)F)cc32)CCN1C [Example 221, (S)-2-Trifluoromethyl-11-[3-(2-methoxy-ethyl)-4-methyl-piperazin-1-yl]-5H-dibenzo[b,e][1,4]diazepine] |
| 198 to 202 °C (dec.) | – | COCC[C@H]1CN(C2=Nc3cc(F)c(F)cc3Nc3sc(C)cc32)CCN1 [Example 254, (S)-6,7-Difluoro-10-[3-(2-methoxy-ethyl)-piperazin-1-yl]-2-methyl-4H-3-thia-4,9-diaza-benzo[f]azulene] |
| – | 0.01 to 0.1 | COCC[C@H]1CN(C2=Nc3ccccc3Nc3sc(C(C)C)nc32)CCN1C1CC1 [Example 339, (S)-10-[4-Cyclopropyl-3-(2-methoxyethyl)piperazin-1-yl]-2-isopropyl-4H-3-thia-1,4,9-triazabenzo[f]azulene dihydrochloride] |
| – | 0.01 to 0.1 | CCCN1CCN(C2=Nc3ccccc3Nc3sc(C(C)C)nc32)C[C@@H]1CCOC [Example 341, (S)-10-[3-(2-Methoxyethyl)-4-propylpiperazin-1-yl]-2-isopropyl-4H-3-thia-1,4,9-triazabenzo[f]azulene dihydrochloride] |
| – | < 0.01 | CCN1CCN(C2=Nc3ccccc3Nc3sc(C(F)(F)F)nc32)C[C@@H]1CCOC [Example 344, (S)-10-[4-Ethyl-3-(2-methoxy-ethyl)-piperazin-1-yl]-2-trifluoromethyl-4H-3-thia-1,4,9-triaza-benzo[f]azulene] |
| – | < 0.01 | CCCN1CCN(C2=Nc3ccccc3Nc3sc(C(F)(F)F)nc32)C[C@@H]1CCOC [Example 346, (S)-10-[3-(2-Methoxy-ethyl)-4-propyl-piperazin-1-yl]-2-trifluoromethyl-4H-3-thia-1,4,9-triaza-benzo[f]azulene] |
| – | 0.01 to 0.1 | COCC[C@H]1CN(C2=Nc3ccccc3Nc3sc(C(F)(F)F)nc32)CCN1CCO [Example 353] |
| – | 0.1 to 1 | Cc1cc2c(s1)Nc1ccccc1N=C2N1CCN(C)[C@@H](CC(C)(C)O)C1 [Example 370, (S)-2-Methyl-1-[1-methyl-4-(2-methyl-4H-3-thia-4,9-diazabenzo[f]azulene-10-yl)-piperazin-2-yl]-propan-2-ol dihydrochloride] |

Further lines, the molecule ahead of its results:

| SMILES | melting point | Ki [1] [µM] |
| --- | --- | --- |
| CCOCC[C@H]1CN(C2=Nc3ccc(F)cc3Nc3sc(C)cc32)CCN1C.Cl | 180 to 182 °C | – |
| COCC[C@H]1CN(C2=Nc3cc(F)ccc3Nc3sc(C)cc32)CCN1C.Cl | 192 to 194 °C | – |
| CCOCC[C@H]1CN(C2=Nc3cc(F)ccc3Nc3sc(C)cc32)CCN1C.Cl.Cl | 193 to 195 °C | – |
| COCC[C@H]1CN(C2=Nc3ccccc3Nc3ccc(Cl)cc32)CCN1C (as salt: hydrochloride) | 205 °C | – |
| COCC[C@H]1CN(C2=Nc3ccc(F)cc3Nc3sc(C)cc32)CCN1 (as salt: hydrochloride) [Example 248b, (S)-6-Fluoro-10-[3-(2-methoxy-ethyl)-piperazin-1-yl]-2-methyl-4H-3-thia-4,9-diaza-benzo[f]azulene dihydrochloride] | 90 °C | – |
| CCc1cc2c(s1)Nc1cc(F)ccc1N=C2N1CCN(C)[C@@H](CCOC)C1 (as salt: hydrochloride) [Example 280, (S)-6-Fluoro-10-[3-(2-methoxy-ethyl)-4-methyl-piperazin-1-yl]-2-ethyl-4H-3-thia-4,9-diaza-benzo[f]azulene dihydrochloride] | 186 to 188 °C | – |
| COCC[C@H]1CN(C2=Nc3ccc(Cl)cc3Nc3sc(C)cc32)CCN1C (as salt: hydrochloride) [Example 291, (S)-6-Chloro-10-[3-(2-methoxy-ethyl)-4-methyl-piperazin-1-yl]-2-methyl-4H-3-thia-4,9-diaza-benzo[f]azulene dihydrochloride] | 174 to 176 °C | – |
| Cc1cc2c(s1)Nc1ccccc1N=C2N1CCN(C)C(COc2ccccc2)C1 (stereo in doubt) [Example 271, (R)-10-(4-Methyl-3-phenoxymethyl-piperazin-1-yl)-2-methyl 4H-3-thia-4,9-diaza-benzo[f]azulene] | 74 to 88 °C | – |
| COCC[C@H]1CN(C2=Nc3ccccc3Nc3ccc(C(C)C)cc32)CCN1 [Example 200, (S)-2-Isopropyl-11-[3-(2-methoxy-ethyl)-piperazin-1-yl]-5H-dibenzo[b,e][1,4]diazepine] | 158 to 160 °C | – |
| COCC[C@H]1CN(C2=Nc3ccccc3Nc3ccc(C(F)(F)F)cc32)CCN1 [Example 202, (S)-2-Trifluoromethyl-11-[3-(2-methoxy-ethyl)-piperazin-1-yl]-5H-dibenzo[b,e][1,4]diazepine] | 71 to 82 °C | – |
| Cc1cc2c(s1)Nc1ccccc1N=C2N1CCN[C@@H](COc2ccccc2)C1 [Example 244, (R)-10-(3-Phenoxymethyl-piperazin-1-yl)-2-methyl-4H-3-thia-4,9-diaza-benzo[f]azulene] | 64 to 81 °C | – |
| COCC[C@H]1CN(C2=Nc3ccccc3Nc3sc(CCC(F)(F)F)nc32)CCN1C [Example 338, (S)-10-[3-(2-Methoxy-ethyl)-4-methyl-piperazin-1-yl]-2-(3,3,3-trifluoro-propyl)-4H-3-thia-1,4,9-triaza-benzo[f]azulene dihydrochloride] | – | 0.01 to 0.1 |
| CCN1CCN(C2=Nc3ccccc3Nc3sc(C(C)C)nc32)C[C@@H]1CCOC [Example 340, (S)-10-[4-Ethyl-3-(2-methoxyethyl)piperazin-1-yl]-2-isopropyl-4H-3-thia-1,4,9-triazabenzo[f]azulene dihydrochloride] | – | 0.01 to 0.1 |
| COCC[C@H]1CN(C2=Nc3ccccc3Nc3sc(C(C)C)nc32)CCN1CCO [Example 342, (S)-2-[4-(2-Isopropyl-4H-3-thia-1,4,9-triazabenzo[f]azulene-10-yl)-2-(2-methoxyethyl)piperazin-1-yl]ethanol dihydrochloride] | – | 0.01 to 0.1 |
| COCC[C@H]1CN(C2=Nc3ccccc3Nc3sc(C(C)C)nc32)CCN1CCOC [Example 343, (S)-10-[3,4-Bis(2-methoxyethyl)piperazin-11-yl]-2-isopropyl-4H-3-thia-1,4,9-triazabenzo[f]azulene dihydrochloride] | – | 0.1 to 1 |
| COCC[C@H]1CN(C2=Nc3ccccc3Nc3sc(C(F)(F)F)nc32)CCN1CCCF [Example 351, (S)-10-[4-(3-Fluoro-propyl)-3-(2-methoxy-ethyl)-piperazin-1-yl]-2-trifluoromethyl-4H-3-thia-1,4,9-triaza-benzo[f]azulene] | – | 0.01 to 0.1 |
| COCC[C@H]1CN(C2=Nc3ccccc3Nc3sc(C(F)(F)F)nc32)CCN1CCCO [Example 355, (S)-3-[2-(2-Methoxy-ethyl)-4-(2-trifluoromethyl-4H-3-thia-1,4,9-triaza-benzo[f]azulene-10-yl)-piperazin-1-yl]-propan-1-ol] | – | 0.01 to 0.1 |
| COCC[C@H]1CN(C2=Nc3ccccc3Nc3sc(C(F)(F)F)nc32)CCN1CCOCCO [Example 357] | – | 0.01 to 0.1 |
| CC(C)c1nc2c(s1)Nc1ccccc1N=C2N1CCN[C@@H](CC(C)(C)O)C1 [Example 367, (S)-1-[4-(2-Isopropyl-4H-3-thia-1,4,9-triazabenzo[f]azulene-10-yl)-piperazin-2-yl]-2-methylpropan-2-ol dihydrochloride] | – | < 0.01 |
| CC(C)c1nc2c(s1)Nc1ccccc1N=C2N1CCN(C)[C@@H](CC(C)(C)O)C1 [Example 368, (S)-1-[4-(2-Isopropyl-4H-3-thia-1,4,9-triazabenzo[f]azulene-10-yl)-1-methylpiperazin-2-yl]-2-methyl-propan-2-ol dihydrochloride] | – | < 0.01 |
| Cc1cc2c(s1)Nc1ccccc1N=C2N1CCN[C@@H](CC(C)(C)O)C1 [Example 369, (S)-2-Methyl-1-[4-(2-methyl-4H-3-thia-4,9-diaza-benzo[f]azulen-10-yl)piperazin-2-yl]-propan-2-ol] | – | 0.1 to 1 |
